According to PubChem BioAssay (NCI):
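How tested: cells in 96-well plates exposed to compound for 48 hours at five concentrations. Definition used: TGI = concentration required for complete inhibition of growth.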

How the values were obtained:
Assay in all cases: NCI-60 cell line screen, 48 h
[1] = system: A549 NSCLC
[2] = system: ACHN renal
[3] = system: BT-549 breast
[4] = system: HS 578T breast
[5] = system: LOX IMVI melanoma
[6] = system: MDA-MB-231 breast
[7] = system: MDA-MB-435
[8] = system: MDA-N
[9] = system: NCI-H522 lung
[10] = system: NCI/ADR-RES ovarian
[11] = system: OVCAR-5 ovarian
[12] = system: RXF 393 renal
[13] = system: SF-295 CNS
[14] = system: SK-MEL-2 melanoma
[15] = system: SK-MEL-28 melanoma
[16] = system: SK-OV-3 ovarian
[17] = system: SNB-75 CNS
[18] = system: SW-620 colon
[19] = system: TK-10 renal
[20] = system: RPMI-8226 leukemia

Measured: TGI

NCCCC[C@H](N)C(=O)Nc1ccc(-c2nc3ccccc3s2)cc1
33.8 µM: [15]
47.6 µM: [4]
30.6 µM: [18]
35.1 µM: [7]
33.2 µM: [11]
31 µM: [13]
33.9 µM: [9]
59.7 µM: [10]
39.2 µM: [16]
37.6 µM: [6]
55 µM: [2]
72 µM: [5]
29 µM: [8]
35.2 µM: [17]
84.9 µM: [3]
not listed: [20]
> 100 µM: all other assays above

O=C(O)CCSCc1ccccc1
> 100 µM: all assays above

COC(=O)C1(C#N)C(C)(C)N=C(c2ccccc2)C12CCCCC2 (stereo not given)
not listed: [2] | [17]
> 100 µM: all other assays above

CC(=O)OCC1OC(Nn2c(=O)[nH]c3ccccc3c2=O)C(OC(C)=O)C(OC(C)=O)C1OC(C)=O (stereo not given)
not listed: [19]
> 100 µM: all other assays above

CC(=O)Nc1c(C)cc2c(nc3n2CCC3OC(C)=O)c1[N+](=O)[O-] (stereo not given)
not listed: [19]
> 100 µM: all other assays above
